Each structure is given as a SMILES string. Bounds are passed on as bounds.

Experimental findings from patent US20230241071A1, “COMBINATION TREATMENT OF LIVER DISORDERS” (Terns Pharmaceuticals, Inc., priority 2021, published 2023) are described below.

In one series the target is T1, THR-β (Homo sapiens, UniProt P10828).
T1 sequence (P10828 1-461): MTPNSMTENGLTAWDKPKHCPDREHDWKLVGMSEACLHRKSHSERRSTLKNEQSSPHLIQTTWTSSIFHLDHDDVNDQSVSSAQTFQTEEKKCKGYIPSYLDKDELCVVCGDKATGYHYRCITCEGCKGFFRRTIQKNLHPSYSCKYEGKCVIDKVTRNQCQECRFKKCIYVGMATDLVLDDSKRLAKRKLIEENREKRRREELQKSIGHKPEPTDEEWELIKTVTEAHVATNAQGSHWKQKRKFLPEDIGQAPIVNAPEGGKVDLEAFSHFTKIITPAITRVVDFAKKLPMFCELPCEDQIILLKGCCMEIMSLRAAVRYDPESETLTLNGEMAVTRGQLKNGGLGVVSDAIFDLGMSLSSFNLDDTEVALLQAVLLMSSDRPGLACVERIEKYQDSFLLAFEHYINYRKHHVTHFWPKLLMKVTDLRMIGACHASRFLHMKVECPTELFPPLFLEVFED
Description: Binding activity to the thyroxine receptor beta. To be noted: for THR-α/-β selectivity: ratio of binding IC50; for IC50: read-out: IC50 THR-β binding force.

Series [1] can be described thus: Pharmacokinetic evaluation in SD rats. Format: in vivo, rat. To be noted: 2.0 mg/kg intragastric; for half-life: male, rat, plasma, po.
Description: Drug Preparation: a certain amount of the drug was taken and added into a 2% Klucel LF+0.1% Tween 80 aqueous solution, to prepare a clear solution or a uniform suspension.
Dosage: SD rats were fasted overnight and given the drug by intragastric infusion at an administrated dose of 2 mg/kg and an administrated volume of 10 mL/kg each.
Operation: rats were dosed by intragastric infusion with the compounds. […] The heparinized sample tubes were then stored at −20° C., and the rats were allowed to eat food 2 h after the dosage.
Determination of contents of the compounds to be tested in the plasma of rats after intragastric infusion of the drugs at different concentrations: the plasma samples were thawed at room temperature, 50 μL each was taken and added into 130 μL of an internal standard working solution (1000 ng/mL, acetonitrile, tolbutamide), and the mixture was whirled for about 1 min and then centrifugated at 4° C. and 13000 rpm for 10 min. 50 μL of the supernatant was taken and mixed with 100 μL of 50% acetonitrile water, and then introduced for LC/MS/MS analysis.

Turning to `N#Cc1nn(-c2cc(Cl)c(Oc3n[nH]c(=O)c4c3CCCC4)c(Cl)c2)c(=O)[nH]c1=O` [Compound 3], at THR-β, the THR-α/-β selectivity is >8.1 factor and the IC50 (usually the concentration that gives 50% inhibition) is 1230 nM.

As for `CC1(C)CCc2c(Oc3c(Cl)cc(-n4cc(C#N)c(=O)[nH]c4=O)cc3Cl)n[nH]c(=O)c21` [Compound 6], in series [1], the Curve area turned out to be 9242 ± 1245 ng·h/mL; the Time to peak is on record as 5.33 ± 1.15 h; the half-life – broadly, how long it takes for the measured level to halve – is 5.14 ± 0.83 h.

Take `N#Cc1nn(-c2cc(Cl)c(Oc3n[nH]c(=O)c4c(Cl)cccc34)c(Cl)c2)c(=O)[nH]c1=O` [Compound 7]: at THR-β, the THR-α/-β selectivity is on record as >6.80 factor and the IC50 came to 1470 nM.

Take `O=c1cnn(-c2cc(Cl)c(Oc3n[nH]c(=O)c4ccccc34)c(Cl)c2)c(=O)[nH]1` [Compound 11]: the IC50 on THR-β was 262 nM.

On to `CC(C)c1cc(Oc2c(Cl)cc(-n3nc(C#N)c(=O)[nH]c3=O)cc2Cl)n[nH]c1=O` [Reference compound, 2-[3,5-Dichloro-4-(5-isopropyl-6-oxo-1,6-dihydropyridazin-3-yloxy)phenyl]-3,5-dioxo-2,3,4,5-tetrahydro[1,2,4]triazine-6-carbonitrile, reference compound], for which, in series [1], the Curve area amounted to 12854 ± 961 ng·h/mL, the “Peak blood drug concentration” value is 1163 ± 97.1 ng/mL, the Time to peak is 5.3 ± 1.15 h and the half-life was 3.53 ± 0.42 h.
